Active and inactive are the calls of the source. The calls are words filed in the database; no cut-off is given here.
Experiments:
A549 = assay: Cytotoxicity against human A549 cells after 48 hrs by MTT assay; format: functional, cell-based; conditions: A549, 48 h
[1] = Cytotoxicity against human SGC7901 cells after 48 hrs by MTT assay; format: functional, cell-based; conditions: SGC-7901, 48 h
MCF7 = assay: Cytotoxicity against human MCF7 cells after 48 hrs by MTT assay; format: functional, cell-based; conditions: MCF7, 48 h
HeLa [2] = assay: Cytotoxicity against human HeLa cells after 48 hrs by MTT assay; format: functional, cell-based
HeLa [3] = assay: Cell cycle arrest in human HeLa cells assessed as decrease in accumulation at G0/G1 phase phase by flow cytometry; format: functional, cell-based
HeLa [4] = assay: Cell cycle arrest in human HeLa cells assessed as increase in accumulation at S phase by flow cytometry; format: functional, cell-based
HeLa [5] = assay: Induction of apoptosis in human HeLa cells assessed as late apoptotic cells at 10 uM by Annexin V-FITC/propidium iodide staining-based flow cytometry (reference value: 0.02%); format: functional
Calf thymus DNA [6] = assay: Induction of DNA intercalation of calf thymus DNA at 1 x 10^-5 M measured at 530 nm by fluorescence spectrophotometry; format: nucleic-acid assay; conditions: Bos taurus
HeLa [7] = assay: Induction of lysosome membrane permeabilization in human HeLa cells by […] (reference value: 1.69%); format: functional
Calf thymus DNA [8] = assay: Induction of DNA intercalation of calf thymus DNA assessed as increase in intensity of absorption using > 6 x 10^-5 M calf thymus DNA by UV spectrophotometry; format: nucleic-acid assay; conditions: Bos taurus
Calf thymus DNA [9] = assay: Induction of DNA intercalation of calf thymus DNA assessed as increase in intensity of positive band at 275 nm at 2 x 10^-5 M by circular dichroism spectroscopy; format: nucleic-acid assay; conditions: Bos taurus
Calf thymus DNA [10] = assay: Induction of DNA intercalation of calf thymus DNA assessed as increase in fluorescence intensity by fluorescence spectrophotometry; format: nucleic-acid assay; conditions: Bos taurus
HeLa [11] = assay: Cell cycle arrest in human HeLa cells assessed as accumulation at G1/G0 phase at 1 to 10 uM after 48 hrs by flow cytometry; format: functional
Mus musculus [12] = assay: Cardiotoxicity in Balb/c mouse assessed as increase in LDH level at 5 to 20 mg/kg, iv measured after 24 hrs; format: toxicity, organism-based; conditions: in vivo
Calf thymus DNA [13] = assay: Induction of DNA intercalation of calf thymus DNA assessed as change in melting temperature at 5 x 10^-6 M by thermal denaturation analysis; format: nucleic-acid assay; conditions: Bos taurus
HeLa [14] = assay: Induction of apoptosis in human HeLa cells assessed as early apoptotic cells at 2.5 uM by Annexin V-FITC/propidium iodide staining-based flow cytometry (reference value: 0.05%); format: functional
Mus musculus [15] = assay: Toxicity in Balb/c mouse assessed as decrease in number of WBC at 5 to 20 mg/kg, iv measured after 24 to 96 hrs; format: organism-based; conditions: in vivo
Calf thymus DNA [16] = assay: Induction of DNA intercalation of calf thymus DNA assessed as hypsochromic shift by fluorescence spectrophotometry (reference value: 530 nanometer); format: nucleic-acid assay; conditions: Bos taurus
HeLa [17] = assay: Binding affinity to DNA in human HeLa cells at 2 uM after 12 hrs by confocal microscopy; format: cell-based
HeLa [18] = assay: Cell cycle arrest in human HeLa cells assessed as accumulation at G2/M phase at 1 to 10 uM after 48 hrs by flow cytometry; format: functional
Calf thymus DNA [19] = assay: Induction of DNA intercalation of calf thymus DNA assessed as reduction in intensity of absorption using 0 to 6 x 10^-5 M calf thymus DNA by UV spectrophotometry; format: nucleic-acid assay; conditions: Bos taurus
HeLa [20] = assay: Induction of apoptosis in human HeLa cells assessed as late apoptotic cells at 5 uM by Annexin V-FITC/propidium iodide staining-based flow cytometry (reference value: 0.02%); format: functional
Mus musculus [21] = assay: Toxicity in Balb/c mouse assessed as increase in number of platelets at 5 to 20 mg/kg, iv measured after 24 to 96 hrs; format: organism-based; conditions: in vivo
Mus musculus [22] = assay: Toxicity in Balb/c mouse assessed as change in RBC at 5 to 20 mg/kg, iv measured after 24 to 96 hrs; format: organism-based; conditions: in vivo
HeLa [23] = assay: Induction of apoptosis in human HeLa cells assessed as late apoptotic cells at 2.5 uM by Annexin V-FITC/propidium iodide staining-based flow cytometry (reference value: 0.02%); format: functional
Mus musculus [24] = assay: Cardiotoxicity in Balb/c mouse assessed as increase in CK level at 5 to 20 mg/kg, iv measured after 24 hrs; format: toxicity, organism-based; conditions: in vivo
HeLa [25] = assay: Cell cycle arrest in human HeLa cells assessed as accumulation at S phase at 1 to 10 uM after 48 hrs by flow cytometry; format: functional
HeLa [26] = assay: Induction of apoptosis in human HeLa cells assessed as early apoptotic cells at 5 uM by Annexin V-FITC/propidium iodide staining-based flow cytometry (reference value: 0.05%); format: functional
HeLa [27] = assay: Induction of apoptosis in human HeLa cells assessed as early apoptotic cells at 10 uM by Annexin V-FITC/propidium iodide staining-based flow cytometry (reference value: 0.05%); format: functional
Mus musculus [28] = assay: Cardiotoxicity in Balb/c mouse assessed as increase in AST level at 5 to 20 mg/kg, iv measured after 24 hrs; format: toxicity, organism-based; conditions: in vivo
HeLa [29] = assay: Induction of apoptosis in human HeLa cells assessed as early apoptotic cells at 1 uM by Annexin V-FITC/propidium iodide staining-based flow cytometry (reference value: 0.05%); format: functional
HeLa [30] = assay: Induction of apoptosis in human HeLa cells assessed as late apoptotic cells at 1 uM by Annexin V-FITC/propidium iodide staining-based flow cytometry (reference value: 0.02%); format: functional
Calf thymus DNA [31] = assay: Induction of DNA intercalation of calf thymus DNA assessed as increase in intensity of negative band at 245 nm at 2 x 10^-5 M by circular dichroism spectroscopy; format: nucleic-acid assay; conditions: Bos taurus
Calf thymus DNA [32] = assay: Induction of DNA intercalation of calf thymus DNA measured at 320 to 520 nm at 2 x 10^-5 M by circular dichroism spectroscopy; format: nucleic-acid assay; conditions: Bos taurus
Calf thymus DNA [33] = assay: Induction of DNA intercalation of calf thymus DNA assessed as binding constant by fluorescence spectrophotometry; format: nucleic-acid assay; conditions: Bos taurus

Compound CN(C)CCN1C(=O)c2cccc3cc(N)cc(c23)C1=O [AMONAFIDE] has an IC50 (A549) of 1.59 µM, an IC50 [1] of 5.32 µM and an IC50 (MCF7) of 8.02 µM. For the same compound, the IC50 (HeLa [2]) was 4.36 µM, the inhibition (HeLa [3]) was “Dose-dependent effect” and the Activity (HeLa [4]) was “Dose-dependent effect”.

CN(CCCN1C(=O)c2cccc3c(N4CCC[C@H]4CO)ccc(c23)C1=O)CCCN1C(=O)c2cccc3c(N4CCC[C@H]4CO)ccc(c23)C1=O showed an IC50 (A549) of 3.05 µM, an IC50 [1] of 2.3 µM and an IC50 (MCF7) of 9.07 µM. For the same compound, the IC50 (HeLa [2]) was > 50 µM.

With CN(CCCN1C(=O)c2cccc3c(N4CCN(CCO)CC4)ccc(c23)C1=O)CCCN1C(=O)c2cccc3c(N4CCN(CCO)CC4)ccc(c23)C1=O the IC50 (A549) was 1.21 µM, the Activity (HeLa [5]) was 51.22% and the Activity (Calf thymus DNA [6]) was “Active”. For the same compound, the Activity (HeLa [7]) was 99.65%, the Activity (Calf thymus DNA [8]) was “Active” and the Activity (Calf thymus DNA [9]) was “Active”. The Activity (Calf thymus DNA [10]) was “Active”, the Activity (HeLa [11]) was 57.79% and the Activity (Mus musculus [12]) was “Non-toxic”. The ΔTm (Calf thymus DNA [13]) was 8 °C, the Activity (HeLa [14]) was 15.9% and the Activity (Mus musculus [15]) was “Non-toxic”. For the same compound, the Activity (Calf thymus DNA [16]) was 520 nm, the Activity (HeLa [17]) was “Active” and the Activity (HeLa [18]) was 3.1%. The Activity (Calf thymus DNA [19]) was “Active”, the Activity (HeLa [20]) was 10.4% and the Activity (Mus musculus [21]) was “Non-toxic”. For the same compound, the Activity (Mus musculus [22]) was “Non-toxic”, the Activity (HeLa [23]) was 3.21% and the IC50 [1] was 0.88 µM. The Activity (Mus musculus [24]) was “Non-toxic”, the Activity (HeLa [25]) was 29.79% and the IC50 (MCF7) was 2.94 µM. It also gave an IC50 (HeLa [2]) of 2.31 µM, an Activity (HeLa [26]) of 16.41% and an Activity (HeLa [27]) of 41.51%. The Activity (Mus musculus [28]) was “Non-toxic”, the Activity (HeLa [29]) was 11.72% and the Activity (HeLa [30]) was 2.09%. For the same compound, the Activity (Calf thymus DNA [31]) was “Active”, the Activity (Calf thymus DNA [32]) was “Active” and the K (Calf thymus DNA [33]) was 1.2 ×10⁵ /M.

CN(CCCN1C(=O)c2cccc3c(N4CC[C@H](O)C4)ccc(c23)C1=O)CCCN1C(=O)c2cccc3c(N4CC[C@H](O)C4)ccc(c23)C1=O gave an IC50 (A549) of 0.6 µM, an IC50 [1] of 2.47 µM and an IC50 (MCF7) of 14 µM. It also gave an IC50 (HeLa [2]) of 1.05 µM.

Work on CN(CCCN1C(=O)c2cccc3c(N4CC[C@@H](O)C4)ccc(c23)C1=O)CCCN1C(=O)c2cccc3c(N4CC[C@@H](O)C4)ccc(c23)C1=O yielded an IC50 (A549) of 1.59 µM, an IC50 [1] of 23.2 µM and an IC50 (MCF7) of 32.9 µM. It also gave an IC50 (HeLa [2]) of 3.65 µM.

With CN(CCCN1C(=O)c2cccc3c(N4CCC(CCO)CC4)ccc(c23)C1=O)CCCN1C(=O)c2cccc3c(N4CCC(CCO)CC4)ccc(c23)C1=O the IC50 (A549) was 3.2 µM, the IC50 [1] was 3.63 µM and the IC50 (MCF7) was > 50 µM. For the same compound, the IC50 (HeLa [2]) was > 50 µM.

For CN(CCCN1C(=O)c2cccc3c(N4CCC[C@@H]4CO)ccc(c23)C1=O)CCCN1C(=O)c2cccc3c(N4CCC[C@@H]4CO)ccc(c23)C1=O, the IC50 (A549) was 4.71 µM, the IC50 [1] was 4.46 µM and the IC50 (MCF7) was > 50 µM. The IC50 (HeLa [2]) was > 50 µM.
